From the NIST ThermoML archive (doi:10.1016/j.jct.2004.12.016)
Several values for one entry are separate records, joined by “and”; a condition that tells them apart may be missing. Identical values can stand only once. ± gives the expanded uncertainty stated by the source.

Settings: for vapor or sublimation pressure: Closed cell (Static) method; for mass density: Fluid (supercritical or subcritical phases), isochoric method

N [ammonia]
Settings	Critical density [kg/m3]	Critical temperature [K]	mass density	vapor or sublimation pressure
310 K, Liquid	–	–	–	1423.6 ± 2.9 kPa [middle of 6 runs]
350 K, Liquid	–	–	–	3867 ± 6.3 kPa [middle of 5 runs]
400 K, Liquid	–	–	–	10303 ± 16 kPa [middle of 4 runs]
404.5 K, Liquid	–	–	–	11148 ± 0.033 kPa and 11151 ± 0.033 kPa and 11150 ± 0.033 kPa
405.5 K, Liquid	–	–	–	11343 ± 0.033 kPa
405.53 K, Liquid	–	–	–	11351 ± 0.033 kPa
405.54 K, Liquid	–	–	–	11352 ± 0.033 kPa and 11354 ± 0.033 kPa and 11353 ± 0.033 kPa
405.55 K, 11351 kPa	–	–	235.01 ± 2 kg/m3	–
405.55 K, 11355 kPa	–	–	249.99 ± 2 kg/m3	–
405.55 K, 11359 kPa	–	–	255.19 ± 2 kg/m3	–
405.55 K, Liquid	–	–	–	11356 ± 0.033 kPa [middle of 5 runs]
405.56 K, 11355 kPa	–	–	242.91 ± 2 kg/m3 and 244.06 ± 2 kg/m3	–
405.56 K, 11356 kPa	–	–	241.93 ± 2 kg/m3 and 242.97 ± 2 kg/m3	–
405.56 K, 11357 kPa	–	–	244.01 ± 2 kg/m3	–
405.56 K, 11358 kPa	–	–	244.95 ± 2 kg/m3 and 243.49 ± 2 kg/m3	–
405.56 K, 11359 kPa	–	–	244 ± 2 kg/m3	–
405.57 K, 11358 kPa	–	–	242.95 ± 2 kg/m3	–
405.57 K, 11360 kPa	–	–	241.94 ± 2 kg/m3 and 244.1 ± 2 kg/m3 and 245.04 ± 2 kg/m3	–
405.57 K, 11361 kPa	–	–	243.96 ± 2 kg/m3	–
405.57 K, 11370 kPa	–	–	242.83 ± 2 kg/m3	–
405.58 K, 11360 kPa	–	–	243.01 ± 2 kg/m3	–
405.58 K, 11362 kPa	–	–	242.02 ± 2 kg/m3 and 244.08 ± 2 kg/m3 and 244.99 ± 2 kg/m3	–
405.6 K, 11355 kPa	–	–	224.92 ± 2 kg/m3	–
405.6 K, 11356 kPa	–	–	229.9 ± 2 kg/m3	–
405.6 K, 11362 kPa	–	–	235.14 ± 2 kg/m3	–
405.6 K, 11363 kPa	–	–	239.9 ± 2 kg/m3	–
405.6 K, 11367 kPa	–	–	245.12 ± 2 kg/m3	–
Liquid, Visual observation in an unstirred cell	–	405.56 ± 0.06	–	–
Liquid, metal-bellows volumometer	244 ± 2	–	–	–
